Assay results reported in patent publication US20040157785A1, “Combination therapy comprising anti-diabetic and anticonvulsant agents” (priority 2000, published 2004).
Read-outs that look alike come from different tables or passages of the source.

What was measured:
[1] = system: patient with Type II diabetes; test: Case Study A: topiramate added to insulin (70/30) in a Type II diabetes patient; assay type: in vivo, human
Method: The ability of the compounds of formula I administered in combination with an anti-diabetic agent to treat Type II diabetes mellitus and Syndrome X is based on the following case studies. The patient was a person with a 6 year history of Type II diabetes. For the past four years the patient was being treated with insulin (70/30). At the start of treatment patient's weight was 236 lbs, measured cholesterol was 316 mg/dl and measured glucose was 166 mg/dl. The patient was started on Topiramate for treatment of seizures and titrated to 75 mg a day. […] After 16 months, patient's fasting glucose was 89 mg/dl.

[2] = system: patient with Type II diabetes; test: Case Study B: topiramate added to Glucotrol (glipizide) in a Type II diabetes patient; assay type: in vivo, human
Method: The ability of the compounds of formula I administered in combination with an anti-diabetic agent to treat Type II diabetes mellitus and Syndrome X is based on the following case studies. The patient was a person with a 5 year history of Type II diabetes. At the start of treatment, patient was taking 40 mg/day Glucotrol (glipizide, a sulfonylurea) and weighed 293 lbs. The patient was titrated on topiramate to 50 mg/day. After 1 month of treatment, patient reported that home measured blood sugars had dropped from a baseline of 300 mg/dl to measured blood sugars of 140 mg/dl. After 2 months, the patient indicated average blood sugar levels of 80-140 mg/dl and weight loss to 272 lbs.

patient with diabetes = test: Case Study C: topiramate added to Glucophage, DiaBeta and Rezulin in a diabetes patient; assay type: in vivo, human
Method: The ability of the compounds of formula I administered in combination with an anti-diabetic agent to treat Type II diabetes mellitus and Syndrome X is based on the following case studies. The patient was a person with an 8 year history of diabetes. Prior to treatment, patient's weight was 201 lbs, Hgb A1C was 9.3% and blood sugar was 309 mg/dl. Patient was taking Glucophage (metformin hydrochloride) at four 500 mg tablets/day (2 tablets in the morning, 1 tablet in the afternoon and 1 tablett at night, for a total of 2000 mg/day), DiaBeta (glyburide) at 10 mg twice a day (total of 20 mg/day) and Rezulin (troglitazone) at 200 mg/day. Patient was started on topiramate at 75 mg b.i.d (150 mg/day). […] After 15 months patient's weight was 190 lbs with blood sugars controlled on 100 mg topiramate in the morning, 200 mg topiramate at night (Total of 300 mg/day), DiaBeta at 10 mg twice a day and Rezulin at 200 mg once a day.

[3] = system: patient with elevated blood sugars; test: Case Study D: topiramate with Amaryl (glimepiride) in a patient with elevated blood sugars; assay type: in vivo, human
Method: The ability of the compounds of formula I administered in combination with an anti-diabetic agent to treat Type II diabetes mellitus and Syndrome X is based on the following case studies. The patient was a person, with a history of elevated blood sugars and a weight of 188 lbs. At the time of initial treatment, patient's blood sugar was 426 mg/dl. Patient was started on topiramate, titrated to 100 mg once a day. The patient was also prescribed […] (glimepiride). After 3 months, patient's blood sugar averaged in the upper 100s, lab sugars measured at 138 mg/dl, cholesterol at 278 mg/dl, triglycerides at 212 mg/dl and HgbA1C at 6.7%. […] Patient weighed 160 lbs. Patient was able to stop taking the […] due to improved sugar control. Due to concerns about weight loss, topiramate was decreased to 100 mg/day. After 21 months, patient's weight was 170 lbs, blood sugars were reported doing well. Lab measured glucose was 115 mg/dl, cholesterol was measured at 236 mg/dl, triglycerides at 106 mg/dl and HgbA1C at 5.7%.

[4] = system: markers of diabetes mellitus; test: Summary of the case studies: topiramate in combination with an anti-diabetic agent; assay type: in vivo, human; conditions: oral administration in combination with an anti-diabetic agent
[5] = system: simple and complex partial seizures and secondarily generalized seizures; conditions: adjunctive therapy or monotherapy; cited from earlier work
seizures [6] = conditions: several rodent models of epilepsy; cited from earlier work
seizures [7] = conditions: animal model of kindled epilepsy; cited from earlier work
[8] = after 3 months, topiramate 100 mg once a day with Amaryl
[9] = after 3 months, topiramate 100 mg once a day with Amaryl, initial 426 mg/dl
[10] = after 21 months, topiramate 100 mg/day, Amaryl stopped
[11] = after one year, topiramate increased to 200 mg/day

CC1(C)O[C@@H]2[C@@H](CO[C@@]3(COS(N)(=O)=O)OC(C)(C)O[C@@H]23)O1 [topiramate, 2,3:4,5-bis-O-(1-methylethylidene)-β-D-fructopyranose sulfamate]
blood sugar (patient indicated) ([1]; after 2 months, topiramate 75 mg a day with insulin (70/30), using the insulin less often): improved significantly | fasting glucose ([1]; after 16 months, with insulin (70/30), glucose at start 166 mg/dl): 89 mg/dL | home measured blood sugars ([1]; after 18 months, with insulin (70/30), previously 150 to 160 mg/dl): less than 120 mg/dl | Hbg A1C ([1]; after one year, topiramate 200 mg b.i.d. with insulin (70/30)): 6.94% | patient's weight ([1]; after one year, topiramate 200 mg b.i.d. with insulin (70/30), start 236 lbs): 225 lbs | home measured blood sugars ([2]; after 1 month, topiramate 50 mg/day with Glucotrol 40 mg/day, baseline 300 mg/dl): 140 mg/dL | average blood sugar levels ([2]; after 2 months, topiramate 50 mg/day with Glucotrol 40 mg/day): 80 to 140 mg/dL | weight ([2]; after 2 months, topiramate 50 mg/day with Glucotrol, start 293 lbs): 272 lbs | patient's weight (patient with diabetes; after 15 months, topiramate 300 mg/day with DiaBeta and Rezulin, prior 201 lbs): 190 lbs | blood sugars (patient with diabetes; after 15 months, topiramate 300 mg/day, DiaBeta 10 mg twice a day, Rezulin 200 mg once a day): controlled | blood sugars (patient indicated) (patient with diabetes; topiramate 75 mg b.i.d (150 mg/day) with Glucophage, DiaBeta, Rezulin, prior blood sugar 309 mg/dl): doing better | need for Glucophage (sugar control) (patient with diabetes; topiramate 150 mg b.i.d (300 mg/day) with DiaBeta and Rezulin): able to stop Glucophage | HgbA1C [3, 8]: 6.7% | cholesterol [3, 8]: 278 mg/dL | triglycerides [3, 8]: 212 mg/dL | blood sugar averaged [3, 9]: upper 100s | lab sugars [3, 9]: 138 mg/dL | HgbA1C [3, 10]: 5.7% | blood sugars (reported) [3, 10]: doing well | cholesterol [3, 10]: 236 mg/dL | lab measured glucose [3, 10]: 115 mg/dL | patient's weight [3, 10]: 170 lbs | triglycerides [3, 10]: 106 mg/dL | need for Amaryl (sugar control) ([3]; after one year, topiramate 200 mg/day): able to stop taking the Amaryl | patient weight ([3]; after one year, topiramate 200 mg/day, start 188 lbs): 160 lbs | cholesterol [3, 11]: 200 mg/dL | lab measured blood sugars [3, 11]: 141 mg/dL | triglycerides [3, 11]: 500 mg/dL | status of markers of diabetes mellitus (blood glucose, glycosylated hemoglobin, triglyceride levels) [4]: consistently improved | efficacy in treating simple and complex partial seizures and secondarily generalized seizures [5]: effective | seizure block (seizures [6]): effectively block seizures | seizure block (seizures [7]): effectively block seizures
